Where only a bound is given, the exact number is not on record here.

Type in all cases: cell-based
The subject of one experiment is HCC1806. Put plainly: Proliferation assay: cell line panel, HCC1806. The settings on record: Homo sapiens, 96 h, breast cancer, triple-negative, 4 days, read-out: Result Category, IC50 (mean). The source says: (§1) Human tumour cells were originally obtained from the American Type Culture Collection (ATCC), from Cell Line Services GmbH (CLS), from the Deutsche Sammlung von Mikroorganismen und Zellkulturen (DSMZ, German Collection of Microorganisms and Cell Cultures), from the Japanese Cancer Research Resources Bank (JCRB), from Public Health England, from the European Collection of Authenticated Cell Cultures (ECACC), from Asterand Biosciences, or from the National Cancer Institute (NCI). Cultivated tumour cells were plated at the density as indicated in Table 6 in 96-well multitier plates in 200 microL of their respective growth medium supplemented 10% fetal calf serum. […] Cell proliferation was determined by staining the cells with crystal violet: the cells were fixed by adding 20 microL/measuring point of an 11% glutaric aldehyde solution for 15 minutes at room temperature. […] The extinction was determined by photometry at a wavelength of 595 nm. The change of cell number, in percent, was calculated by normalization of the measured values to the extinction values of the zero-point plate (=0%) and the extinction of the untreated (0 μM) cells (=100%). […]

The next experiment has as its system HUH-7. The experiment is described as follows: Proliferation assay: cell line panel, HUH-7. To be noted: Homo sapiens, 96 h, liver cancer, 4 days, read-out: Result Category, IC50 (mean).
From the text: as §1

A further experiment has as its system HCC1143. Put plainly: Proliferation assay: cell line panel, HCC1143. The settings on record: Homo sapiens, 96 h, breast cancer, triple-negative, 4 days, read-out: Result Category, IC50 (mean).
From the text: as §1

Consider `FC(F)(F)c1ccc(-c2cnc(CNc3nc(N4CCOCC4)nn4c(C(F)(F)F)cnc34)[nH]2)cc1` [Example 7, 2-(morpholin-4-yl)-7-(trifluoromethyl)-N-({5-[4-(trifluoromethyl)phenyl]-1H-imidazol-2-yl}methyl)imidazo[2,1-f][1,2,4]triazin-4-amine], for which the IC50 in the experiment on HCC1806 is no less than 100 nM; in the experiment with HUH-7, 30 to 100 nM; in the experiment with HCC1143, no less than 100 nM.
Turning to `FC(F)(F)Oc1ccc(-c2cnc(CNc3nc(N4CCOCC4)nn4c(C(F)(F)F)cnc34)[nH]2)cc1` [Example 8, 2-(morpholin-4-yl)-N-({5-[4-(trifluoromethoxy)phenyl]-1H-imidazol-2-yl}methyl)-7-(trifluoromethyl)imidazo[2,1-f][1,2,4]triazin-4-amine], the IC50 is 30 to 100 nM in the experiment with HCC1806, 30 to 100 nM in the experiment with HUH-7 and no less than 100 nM with HCC1143.

What is called IC50 is the concentration needed to halve the response being measured.

For the origin of these results see patent US20250066370A1, “BICYCLIC TRIAZINE DERIVATIVES FOR THE TREATMENT OF CANCER” (DEUTSCHES KREBSFORSCHUNGSZENTRUM, priority 2022, published 2025).
